Source: patent US10111902B2, “Polymers for reversing heparin-based anticoagulation” (University of British Columbia, priority 2011, dated 2018)
Entries after “also recorded” stand apart in the source; their conditions may differ.

Assays:
Enoxaparin [1] = assay: Thromboelastography (TEG), neutralization of Enoxaparin in whole blood; type: cell-based; details: human whole blood; JNK-5 and JNK-6 at 0.1 mg/ml
Method: (§1) This example examines thromboelastography in the presence of various heparin binders. Thromboelastography (TEG) provides an in vitro method for monitoring of the evolution of the viscoelastic properties and coagulation kinetics of blood as clotting proceeds. The principle components of the TEG are a cylindrical cup and a bob suspended in the cup from a weak torsion wire. The warmed cup oscillates over a 10 second period through an angle of 4° 45′. Blood is added and a torque is transmitted to the bob as the gel forms. The rate of clot formation, the strength of the clot, and the rate of clot lysis are reflected in the shape traced out by the maxima in the bob oscillation as a function of time (the trace of the TEG). The clot's physical properties, i.e. rate of clot formation, clot strength, and stability are dependent on the interaction of fibrinogen, platelets, and plasma proteins. TEG studies yield the cumulative effect of several components of coagulation (global homeostasis) as a function of time.
(§2) To carry out TEG experiments, citrate anti-coagulated whole blood with heparin or heparin derivatives added are incubated with buffered HBSPCM polymers (sodium citrate or saline) for 1 minute before recalcification at 37° C. Clot formation kinetics are monitored in a TEG machine (350 μl whole blood+35 μl polymer or control solution) at 37° C. […]

LMWH Tinzaparin [2] = assay: APTT assay, neutralization of LMWH Tinzaparin in citrate plasma; type: biochemical, human
Method: Citrate plasma was anti-coagulated with 2.0 U/ml LMWH (LMWH control) and was titrated with different concentrations of JNK-1 polymers (0.009 to 8.69 nanomoles/ml) (FIG. 4A) and protamine (0.2 to 222.2 nanomoles/ml) (FIG. 4B).
(§3) Citrate plasma was anticoagulated with 2.0 U/ml UFH, Enoxaparin and Tinzaparin and was treated with different concentrations of the HBSPCM polymers and protamine (0.001 to 0.25 mg/ml). The APTT was measured for each sample.
(§4) Citrate plasma was anticoagulated with UFH (2.0 IU/mL), Enoxaparin (2.0 IU/mL) and Tinzaparin (1.14 IU/mL) and was titrated with different concentrations of the HBSPCM polymers and protamine (0.001 to 0.25 mg/ml). The APTT was measured for each sample.
(§5) Ability of HBSPCM polymers JNK-9, JNK-10 and JNK-11 was studied for the range of concentration from 0.01 to 0.25 mg/mL prepared in 0.15 M saline. Citrated blood was spun at 3000 RPM for 10 min to obtain platelet poor plasma (PPP). The PPP was then heparinized by adding 45 μL of heparin (UFH, LMWH etc.) to 2200 μL of PPP final concentration of 2.0 IU/mL for UFH and Tinzaparin and 1.14 IU/mL for Enoxaparin. Normal control was prepared by adding 25 μL of 0.15 M saline to 250 μL of PPP. 25 μL of each antidote solution (polymer or protamine) was added to 225 μL of heparinized PPP. 250 μL of APTT reagent (actin FSL) was then added and samples were incubated for 3 min at 37° C. […]

blood coagulation = assay: Blood compatibility by thromboelastograph (TEG); type: cell-based; details: polymer concentration 0.5 mg/ml
Method: as §1, §2

LMWH Tinzaparin [3] = assay: Thromboelastography (TEG), neutralization of LMWH Tinzaparin in whole blood; type: cell-based; details: human whole blood; for clot strength (maximum amplitude, MA) with Tinzaparin: antidote at higher concentration (0.25 mg/ml)
Method: as §1
To carry out TEG experiments, citrate anti-coagulated whole blood with heparin or heparin derivatives added are incubated with buffered HBSPCM polymers (sodium citrate or saline) for 1 minute before recalcification at 37° C. Clot formation kinetics are monitored in a TEG machine (350 μl whole blood+35 μl polymer or control solution) at 37° C.
The coagulation time (FIG. 7A) and maximum clot strength, or maximum amplitude (MA) (FIG. 7B) are shown. Citrated whole blood was added to UFH or Tinzaparin (0.5 U/ml) and re-calcified at 37° C. in a TEG cup and monitored using a TEG machine. JNK-1 polymers or protamine at different concentrations were used as neutralizing agents.

Enoxaparin [4] = assay: Anti Xa neutralization of Enoxaparin in platelet poor plasma; type: biochemical, human; details: One IU LMWH per ml in platelet poor plasma
Method: Both JNK-1 and JNK-2 result in greater neutralization of unfractionated heparin at two doses (50 and 100 μg/ml), Tinzaparin (LMWH) and Enoxaparin (LMWH).

Tinzaparin = assay: LMWH Tinzaparin neutralization in living rats (anti-Xa assay); type: in vivo, rat; details: 25 U Tinzaparin, then about 1 mg polymer or protamine (3 mg/kg)
Method: The present example examines heparin binding polymer effectiveness in vivo. HBSPCM polymers were tested for their ability to neutralize UFH and LMWH in living rats. Rats were first injected with heparin or heparin derivative, and then injected with the JNK-1 polymers, protamine or saline control to neutralize the previously administered heparin or heparin derivative. Neutralization was measured by detecting the percentage of factor Xa using an anti-Xa assay as a measure of anticoagulant activity.
In addition, Enoxaparin alone and JNK-1 polymers+Enoxaparin were compared (FIG. 8C). An anti-Xa assay was used to measure heparin activity in rat blood. In this pilot study, rats were injected with 25 U of UFH, Tinzaparin or Enoxaparin (0 minutes). Blood was collected after UFH, Tinzaparin, or Enoxaparin infusion (5 minutes). Approximately 1 mg of JNK-1 polymers or protamine (dose was 3 mg/kg) was injected at 7 minutes and the blood was collected at 12 minutes after UFH/Tinzaparin/Enoxaparin infusion (5 minutes after JNK-1 infusion), and 17 minutes (10 minutes after JNK-1 polymer infusion). For subjects receiving Enoxaparin, blood was collected at additional time points (25 minutes and 30 minutes). Blood samples collected before the UFH, Enoxaparin or Tinzaparin infusion were used as a base control. […] Each data point shown reflects an average and standard deviation from five rats. […]

LMWH Enoxaparin = assay: APTT assay, neutralization of LMWH Enoxaparin in citrate plasma; type: biochemical, human; details: Enoxaparin 2.0 U/ml or 1.14 IU/mL, 0.001 to 0.25 mg/ml
Method: as §3, §4
as §5, with “C. 250 μL of normal control was combined with 250 μL of APTT reagent and also incubated for 3 min. 50 μL of 0.025M CaCl2 was added to 100 μL aliquots of normal control and sample (in triplicate).” for “C.”

protamine
Enoxaparin neutralization (TEG) (Enoxaparin [1]): not effective at neutralizing UFH or LMWH Tinzaparin and Enoxaparin in terms of the time to clot formation
LMWH Tinzaparin neutralization (APTT) (LMWH Tinzaparin [2]; citrate plasma, Tinzaparin 2.0 U/ml or 1.14 IU/mL, 0.001 to 0.25 mg/ml): neutralizes UFH and LMWH only in the narrow concentration range
LMWH Tinzaparin neutralization (APTT) (LMWH Tinzaparin [2]; human citrate plasma anti-coagulated with LMWH Tinzaparin (2.0 U/ml), titrated with JNK-1 0.009 to 8.69 or protamine 0.2 to 222.2 nanomoles/ml): not at all; also recorded: incapable of neutralizing LMWH
coagulation time (R) and kinetics parameter (K), TEG (blood coagulation): different blood coagulation profile
LMWH Tinzaparin neutralization (TEG: coagulation time, clot strength) (LMWH Tinzaparin [3]; Tinzaparin 0.5 U/ml, re-calcified at 37° C): not effective at neutralizing UFH or LMWH Tinzaparin and Enoxaparin in terms of the time to clot formation
clot strength (maximum amplitude, MA) with Tinzaparin (LMWH Tinzaparin [3]): did not form a stable clot
clot strength (maximum amplitude, MA) with Tinzaparin (LMWH Tinzaparin [3]; listed as protamine): not at all at a high dose
Anti Xa Neutralization (%) of Enoxaparin at 100 μg/ml (Enoxaparin [4]): 73 ± 4%
neutralization of anticoagulant activity of Tinzaparin in rats (anti-Xa) (Tinzaparin): could not completely neutralize the LMWH
Blood compatibility at 1 mg/ml (blood): poor [3]
LMWH Enoxaparin neutralization (APTT) (LMWH Enoxaparin): neutralizes UFH and LMWH only in the narrow concentration range
